Test results reported in patent US5502066A, “1,2,4-dithiazolium salts as chemotherapeutics” (Bayer Aktiengesellschaft, priority 1993, dated 1996).

Assays:
[1] = system: endotoxemic shock in D-GalN-sensitized mice; assay: in vivo; parameters: lethality, Dose 10 mg/kg / lethality, Dose 30 mg/kg / lethality, Dose 60 mg/kg: unit not given here; details: LPS + D-GalN control 100, 48 hours; for lethality, Dose 10 mg/kg: 10 mg/kg i.p. one hour before LPS (0.1 μg/mouse) + D-GalN (60 mg/kg); for lethality, Dose 30 mg/kg: 30 mg/kg i.p. one hour before LPS (0.1 μg/mouse) + D-GalN (60 mg/kg); for lethality, Dose 60 mg/kg: 60 mg/kg i.p. one hour before LPS (0.1 μg/mouse) + D-GalN (60 mg/kg)
Experimental: (§1) Substances from the class of dithiazolium salts are described in their protective action by way of example in the following: in vitro in the TNF-α-mediated cytotoxicity test, and in vivo on mice which have been exposed to an endotoxin shock.
(§2) In vivo experiments on inhibition of provoked endotoxin shock were carried out on female inbred mice (F1 B6D2!). Endotoxin/lipopolysaccharide (LPS) from Salmonella abortus equi (0.1 μg/mouse) was administered intraperitoneally or intravenously in association with D-galactosamine hydrochloride (D-GalN; 60 mg/kg of bodyweight) in accordance with reports by Galanos et al. (1979, Proc. Natl. Acad. Sci. USA 76: 5939; V. Lehmann et al. 1987, J. Exp. Med. 165: 657). The substances were administered intraperitoneally one hour before inducement of the endotoxemic shock. The observation period was 48 hours.

in vivo = assay: in vivo; parameters: lethality, Dose 10 mg/kg / lethality, Dose 30 mg/kg / lethality, Dose 60 mg/kg: unit not given here; details: mouse, in vivo, ip; substance 60 mg/kg + D-GalN 60 mg/kg, without LPS; mice; observation 48 hours; read-out: lethality, Substance + D-GalN control
Experimental: as §1, §2

For `CC1C[N+](=c2nc(N(C)C)ss2)CC(C)O1.[I-]` (centres unmarked) [Example 2, 4-(5-dimethylamino-3H-1,2,4-dithiazole-3-ylidene)-2,6-dimethyl-morpholinium iodide], which “lethality, Dose 10 mg/kg” value [1] is on record?
The value was 100.

And the “lethality, Dose 30 mg/kg” value [1]?
The value was 20.

What about the “lethality, Dose 60 mg/kg” value [1] of the same compound?
The value was 0.

And the mortality at 48 h (in vivo)?
Its mortality at 48 h is 0%.

Which results are given for `CN(C)c1nc(=[N+](C)c2ccccc2)ss1.F[B-](F)(F)F` [Example 3, N-(5-dimethylamino-3H-1,2,4-dithiazole-3-ylidene)-N-methylanilinium tetrafluoroborate]?
lethality, Dose 10 mg/kg [1]: 80; lethality, Dose 30 mg/kg [1]: 40; lethality, Dose 60 mg/kg [1]: 0; mortality at 48 h (in vivo): 0%

What does the source list for `CN(C)c1nc(=[N+]2CCOCC2)ss1` [Example 5]?
lethality, Dose 10 mg/kg [1]: 40; lethality, Dose 30 mg/kg [1]: 0; lethality, Dose 60 mg/kg [1]: 0; mortality at 48 h (in vivo): 0%

Which results are given for `CN1CC[N+](=c2nc(N(C)C)ss2)CC1` [Example 8]?
lethality, Dose 10 mg/kg [1]: 40; lethality, Dose 30 mg/kg [1]: 0; lethality, Dose 60 mg/kg [1]: 0; mortality at 48 h (in vivo): 0%

For `CC(C)[N+](=c1nc(N(C)C)ss1)C(C)C` [Example 10], which “lethality, Dose 10 mg/kg” value [1] is on record?
Its value is 20.

What about the “lethality, Dose 30 mg/kg” value [1] of the same compound?
Its value is 0.

What about the “lethality, Dose 60 mg/kg” value [1] of the same compound?
The value was 0.

What about the mortality at 48 h (in vivo) of the same compound?
The mortality at 48 h was 0%.

For `CN(C)c1nc(=[N+](C)Cc2ccc(Cl)c(Cl)c2)ss1` [Example 43], which “lethality, Dose 10 mg/kg” value [1] is on record?
Its value is 20.

And the “lethality, Dose 30 mg/kg” value [1]?
Its value is 20.

What about the “lethality, Dose 60 mg/kg” value [1] of the same compound?
The value was 0.

And the mortality at 48 h (in vivo)?
Its mortality at 48 h is 0%.

With `CN(C)c1nc(=[N+](C)Cc2ccc(Cl)cc2)ss1` [Example 46] as the compound, how does the “lethality, Dose 10 mg/kg” value [1] read?
The value was 0.

What about the “lethality, Dose 30 mg/kg” value [1] of the same compound?
Its value is 0.

And the “lethality, Dose 60 mg/kg” value [1]?
Its value is 0.

And the mortality at 48 h (in vivo)?
Its mortality at 48 h is 0%.

For `CN(C)c1nc(=[N+](C)Cc2ccc(Cl)cc2Cl)ss1` [Example 48], which “lethality, Dose 10 mg/kg” value [1] is on record?
The value was 0.

And the “lethality, Dose 30 mg/kg” value [1]?
Its value is 0.

What about the “lethality, Dose 60 mg/kg” value [1] of the same compound?
Its value is 0.

What about the mortality at 48 h (in vivo) of the same compound?
The mortality at 48 h was 0%.
